According to US20250144067A1, “PERSONALIZED STARVATION THERAPY FOR CANCER” (Faeth Therapeutics, Inc., priority 2021, published 2025):
Counter-ions that a name gives are not always drawn.

Assays:
[1] = system: NCI-H292 lung cancer cells; experiment: FDA drug screening, complete media vs cholesterol-free media with simvastatin (TABLE 2); assay type: cell-based, human; settings: for Cholesterol-free media + simvastatin (0.04 μM) / Complete Media: NCI-H292 cells
[2] = system: NCI-H292 lung cancer cells; experiment: FDA drug screening, complete media vs cholesterol-free media without statin (TABLE 1); assay type: cell-based, human
[3] = FDA drug library screen, cholesterol-free media with simvastatin 0.04 μM
[4] = FDA drug library screen, complete media
[5] = complete media vs cholesterol-free media + simvastatin (0.04 μM), >0 enhanced anti-cancer activity, about 0 neutral, <0 antagonist
[6] = NCI-H292 cells, cholesterol-free media without statin
[7] = complete vs cholesterol-free media, greater than 0 enhanced anti-cancer activity, about 0 neutral, below 0 antagonists
[8] = drug in cholesterol-free media with simvastatin 0.04 μM
[9] = complete media vs cholesterol-free media + simvastatin (0.04 μM), […]
[10] = complete vs cholesterol-free media, […]
[11] = cholesterol-free media with simvastatin 0.04 μM, cell growth value in FDA drug screen
[12] = complete media, cell growth value in FDA drug screen
[13] = complete media minus cholesterol-free media + simvastatin, >0 enhanced anti-cancer activity, about 0 neutral, <0 antagonist
[14] = Complete minus Cholesterol-free, greater than 0 enhanced anti-cancer activity, about 0 neutral, below 0 antagonist
[15] = NCI-H292 cells, FDA drug library screen, cholesterol-free media without statin
[16] = NCI-H292 cells, FDA drug library screen, complete media
[17] = FDA library drug in cholesterol-free media with simvastatin 0.04 μM
[18] = FDA library drug in complete media
[19] = Complete minus Cholesterol-free, >0 enhanced anti-cancer activity, about 0 neutral, <0 antagonist
[20] = NCI-H292 cells, cholesterol-free media without statin, FDA drug library screen
[21] = NCI-H292 cells, complete media, FDA drug library screen
[22] = cholesterol-free media with simvastatin 0.04 μM, FDA drug library screen (TABLE 2)
[23] = complete media, FDA drug library screen (TABLE 2)
[24] = complete media minus cholesterol-free media + simvastatin (0.04 μM), >0 enhanced anti-cancer activity, about 0 neutral, <0 antagonist
[25] = complete vs cholesterol-free media, >0 enhanced anti-cancer activity, about 0 neutral, <0 antagonist
[26] = Complete minus Cholesterol-free, greater than 0 enhanced anti-cancer activity, about 0 neutral, below 0 antagonists
[27] = NCI-H292 cells in cholesterol-free media without statin
[28] = NCI-H292 cells in complete media

Compound: CCOc1ccc2nc(S(N)(=O)=O)sc2c1 [Ethoxzolamide]
- Cholesterol-free media + simvastatin (0.04 μM) [1, 3]: 1.137
- Complete Media [1, 4]: 1.016
- Difference [1, 5]: −0.12
- Cholesterol-free [2, 6]: 1.33
- Complete ([2]; NCI-H292 cells, complete media): 0.9909
- Difference [2, 7]: −0.34

Compound: Valemetostat (tosylate)
- Cholesterol-free media + simvastatin (0.04 μM) [1, 8]: 1.195
- Complete Media ([1]; drug in complete media): 0.9379
- Difference [1, 9]: −0.26
- Cholesterol-free [2, 6]: 1.464
- Complete ([2]; NCI-H292 cells, complete media): 1.052
- Difference [2, 10]: −0.41

Compound: CCCC(=O)O[C@]1(C(=O)COC(=O)CC)CC[C@H]2[C@@H]3CCC4=CC(=O)CC[C@]4(C)[C@H]3[C@@H](O)C[C@@]21C [Hydrocortisone buteprate]
- Cholesterol-free media + simvastatin (0.04 μM) [1, 11]: 0.6107
- Complete Media [1, 12]: 0.6538
- Difference [1, 13]: 0.04
- Difference [2, 14]: −0.17
- Cholesterol-free [2, 15]: 0.8122
- Complete [2, 16]: 0.6382

Compound: C#C[C@]1(O)CC[C@H]2[C@@H]3CCC4=CC(=O)CC[C@@H]4[C@H]3CC[C@@]21CC [Levonorgestrel]
- Cholesterol-free media + simvastatin (0.04 μM) [1, 17]: 1.877
- Complete Media [1, 18]: 1.543
- Difference [1, 5]: −0.33
- Difference [2, 19]: −0.21
- Cholesterol-free [2, 6]: 1.107
- Complete ([2]; NCI-H292 cells, complete media): 0.8992

Compound: CCC1(C)CC(=O)NC1=O (stereo not drawn) [Ethosuximide]
- Cholesterol-free media + simvastatin (0.04 μM) [1, 3]: 1.133
- Complete Media [1, 4]: 0.9952
- Difference [1, 5]: −0.14
- Difference [2, 19]: −0.24
- Cholesterol-free [2, 6]: 1.124
- Complete ([2]; NCI-H292 cells, complete media): 0.884

Compound: CO/N=C(\C(=O)N[C@@H]1C(=O)N2C(C(=O)O)=C(CSc3nc(C)c(CC(=O)O)s3)CS[C@H]12)c1csc(N)n1 [Cefodizime]
- Cholesterol-free media + simvastatin (0.04 μM) [1, 8]: 1.707
- Complete Media ([1]; drug in complete media): 1.539
- Difference [1, 5]: −0.17
- Difference [2, 19]: −0.06
- Cholesterol-free [2, 20]: 0.9888
- Complete [2, 21]: 0.9297

Compound: CNCCc1ccccn1.CS(=O)(=O)O.CS(=O)(=O)O [Betahistine (mesylate)]
- Cholesterol-free media + simvastatin (0.04 μM) [1, 22]: 1.015
- Complete Media [1, 23]: 1.025
- Difference [1, 24]: 0.01
- Cholesterol-free [2, 6]: 1.235
- Complete ([2]; NCI-H292 cells, complete media): 0.8713
- Difference [2, 7]: −0.36

Compound: C[C@@H]1CCO[C@H]2Cn3cc(C(=O)NCc4ccc(F)cc4F)c(=O)c(O)c3C(=O)N12 [Dolutegravir (sodium)]
- Cholesterol-free media + simvastatin (0.04 μM) [1, 11]: 0.4489
- Complete Media [1, 12]: 0.5012
- Difference [1, 13]: 0.05
- Difference [2, 19]: −0.20
- Cholesterol-free [2, 6]: 0.8373
- Complete ([2]; NCI-H292 cells, complete media): 0.6354

Compound: CCOCCn1c(C2CCN(CCc3ccc(C(C)(C)C(=O)O)cc3)CC2)nc2ccccc21 [Bilastine]
- Cholesterol-free media + simvastatin (0.04 μM) [1, 3]: 1.167
- Complete Media [1, 4]: 1.071
- Difference [1, 5]: −0.10
- Difference [2, 19]: −0.27
- Cholesterol-free [2, 6]: 1.435

Compound: Lenvatinib (mesylate)
- Cholesterol-free media + simvastatin (0.04 μM) [1, 22]: 1.17
- Complete Media [1, 23]: 1.154
- Difference [1, 24]: −0.02
- Difference [2, 14]: −0.10
- Cholesterol-free [2, 15]: 0.845
- Complete [2, 16]: 0.7401

Compound: Delavirdine (mesylate)
- Cholesterol-free media + simvastatin (0.04 μM) [1, 11]: 0.9532
- Difference [1, 13]: 0.08
- Difference [2, 14]: −0.10
- Cholesterol-free [2, 15]: 1.071
- Complete [2, 16]: 0.9729

Compound: CS(=O)(=O)CCNCc1ccc(-c2ccc3ncnc(Nc4ccc(OCc5cccc(F)c5)c(Cl)c4)c3c2)o1 [Lapatinib]
- Cholesterol-free media + simvastatin (0.04 μM) [1, 11]: 0.4073
- Complete Media [1, 12]: 0.4535
- Difference [1, 13]: 0.05
- Difference [2, 19]: −0.07
- Cholesterol-free [2, 20]: 0.3435
- Complete [2, 21]: 0.2753

Compound: C=CCCCCCCCCC(=O)O [10-Undecenoic acid]
- Cholesterol-free media + simvastatin (0.04 μM) [1, 17]: 1.07
- Complete Media [1, 18]: 0.7648
- Difference [1, 5]: −0.30
- Difference [2, 19]: 0.01
- Cholesterol-free [2, 20]: 0.9796
- Complete [2, 21]: 0.99

Compound: CC(Cc1ccc(O)cc1)NCC(O)c1cc(O)cc(O)c1 (stereo not drawn) [Fenoterol (hydrobromide)]
- Cholesterol-free media + simvastatin (0.04 μM) [1, 22]: 0.9531
- Complete Media [1, 23]: 0.9512
- Difference ([1]; complete media minus cholesterol-free media + simvastatin (0.04 μM), […]): 0.00
- Difference ([2]; Complete minus Cholesterol-free, […]): −0.09
- Cholesterol-free [2, 15]: 1.404
- Complete [2, 16]: 1.311

Compound: CCCCCCCCCCCCN1CCCCCC1=O [Laurocapram]
- Cholesterol-free media + simvastatin (0.04 μM) [1, 3]: 1.036
- Complete Media [1, 4]: 0.883
- Difference [1, 5]: −0.15
- Difference [2, 19]: −0.06
- Complete [2, 21]: 0.887

Compound: CO[C@@]1(NC(=O)CSCC#N)C(=O)N2C(C(=O)O)=C(CSc3nnnn3C)CS[C@@H]21 [Cefmetazole (sodium)]
- Cholesterol-free media + simvastatin (0.04 μM) [1, 3]: 1.32
- Complete Media [1, 4]: 1.164
- Difference [1, 5]: −0.16
- Cholesterol-free [2, 20]: 0.6502
- Complete [2, 21]: 0.9897
- Difference [2, 25]: 0.34

Compound: NCCc1c[nH]cn1.O=P(O)(O)O [Histamine (phosphate)]
- Cholesterol-free media + simvastatin (0.04 μM) [1, 22]: 1.025
- Complete Media [1, 23]: 1.021
- Difference [1, 24]: 0.00
- Difference [2, 19]: −0.23
- Cholesterol-free [2, 6]: 1.032
- Complete ([2]; NCI-H292 cells, complete media): 0.8034

Compound: CN(C)N(C)C(=O)[C@@]1(Cc2ccccc2)CCCN(C(=O)[C@@H](Cc2c[nH]c3ccccc23)NC(=O)C(C)(C)N)C1 [Anamorelin (hydrochloride)]
- Cholesterol-free media + simvastatin (0.04 μM) [1, 22]: 1.088
- Complete Media [1, 23]: 1.064
- Difference [1, 24]: −0.02
- Difference [2, 26]: −0.93
- Cholesterol-free [2, 27]: 1.922
- Complete [2, 28]: 0.9877

Compound: CN(C)c1cc(NC(=O)CNC(C)(C)C)c(O)c2c1C[C@H]1C[C@H]3[C@H](N(C)C)C(O)=C(C(N)=O)C(=O)[C@@]3(O)C(O)=C1C2=O [Tigecycline (tetramesylate)]
- Cholesterol-free media + simvastatin (0.04 μM) [1, 3]: 0.4075
- Complete Media [1, 4]: 0.333
- Difference [1, 5]: −0.07
- Difference [2, 19]: 0.02
- Cholesterol-free [2, 20]: 0.1191
- Complete [2, 21]: 0.1424

Compound: NC(=O)c1cccc2cn(-c3ccc([C@@H]4CCCNC4)cc3)nc12 [Niraparib]
- Cholesterol-free media + simvastatin (0.04 μM) [1, 22]: 1.191
- Complete Media [1, 23]: 1.193
- Difference [1, 24]: 0.00
- Difference [2, 19]: −0.30
- Cholesterol-free [2, 6]: 1.29
- Complete ([2]; NCI-H292 cells, complete media): 0.9917

Compound: N#Cc1ccc(C(c2ccc(C#N)cc2)n2cncn2)cc1 [Letrozole]
- Cholesterol-free media + simvastatin (0.04 μM) [1, 17]: 1.67
- Complete Media [1, 18]: 1.21
- Difference [1, 5]: −0.46
- Cholesterol-free [2, 6]: 1.334
- Complete ([2]; NCI-H292 cells, complete media): 1.012
- Difference [2, 7]: −0.32

Compound: NCCCC[C@H](N[C@@H](CCc1ccccc1)C(=O)O)C(=O)N1CCC[C@H]1C(=O)O [Lisinopril (dihydrate)]
- Cholesterol-free media + simvastatin (0.04 μM) [1, 22]: 0.94
- Complete Media [1, 23]: 0.9409
- Difference [1, 24]: 0.00
- Difference [2, 14]: −0.08
- Cholesterol-free [2, 15]: 1.734
- Complete [2, 16]: 1.657

Compound: CC(=O)N1C[C@H](O)C[C@H]1C(=O)O [Oxaceprol]
- Cholesterol-free media + simvastatin (0.04 μM) [1, 22]: 0.8786
- Complete Media [1, 23]: 0.8552
- Difference [1, 24]: −0.02
- Difference [2, 19]: −0.27
- Cholesterol-free [2, 6]: 0.9566
- Complete ([2]; NCI-H292 cells, complete media): 0.6838

Compound: CNC[C@H](O)[C@@H](O)[C@H](O)[C@H](O)CO [Meglumine]
- Cholesterol-free media + simvastatin (0.04 μM) [1, 22]: 1.358
- Complete Media [1, 23]: 1.305
- Difference [1, 24]: −0.05
- Difference [2, 19]: −0.26
- Cholesterol-free [2, 6]: 1.228
- Complete ([2]; NCI-H292 cells, complete media): 0.9693

Compound: C=C1CC[C@H](O)C/C1=C/C=C1\CCC[C@]2(C)[C@@H]([C@H](C)CCCC(C)(C)O)CC[C@@H]12 [Calcifediol]
- Cholesterol-free media + simvastatin (0.04 μM) [1, 8]: 1.216
- Complete Media ([1]; drug in complete media): 1.052
- Difference [1, 5]: −0.16
- Difference [2, 26]: −0.53
- Cholesterol-free [2, 27]: 1.425
- Complete [2, 28]: 0.8976

Compound: CCOC(=O)c1ccc(O)cc1 [Ethylparaben]
- Cholesterol-free media + simvastatin (0.04 μM) [1, 3]: 1.326
- Complete Media [1, 4]: 1.517
- Difference [1, 13]: 0.19
- Cholesterol-free [2, 20]: 1.065
- Complete [2, 21]: 1.563
- Difference [2, 25]: 0.50

Compound: Fc1ccc([C@@H]2CCNC[C@H]2COc2ccc3c(c2)OCO3)cc1 [Paroxetine (hydrochloride)]
- Cholesterol-free media + simvastatin (0.04 μM) [1, 22]: 0.916
- Complete Media [1, 23]: 0.9086
- Difference [1, 24]: −0.01
- Difference [2, 19]: −0.22
- Cholesterol-free [2, 6]: 1.09
- Complete ([2]; NCI-H292 cells, complete media): 0.8739

Compound: CCCCCCCCN=c1ccn(CCCCCCCCCCn2ccc(=NCCCCCCCC)cc2)cc1 [Octenidine (dihydrochloride)]
- Cholesterol-free media + simvastatin (0.04 μM) [1, 22]: −0.0001133
- Complete Media [1, 23]: −0.0003925
- Difference [1, 24]: 0.00
- Difference [2, 19]: 0.01
- Cholesterol-free [2, 20]: 0.00456
- Complete [2, 21]: 0.01483

Compound: NCCCC[C@H](N)C(=O)O.O=C(O)COc1nn(Cc2ccccc2)c2ccccc12 [Bendazac L-Lysine]
- Cholesterol-free media + simvastatin (0.04 μM) [1, 3]: 1.079
- Complete Media [1, 4]: 0.922
- Difference [1, 9]: −0.16
- Cholesterol-free [2, 20]: 0.6107
- Complete [2, 21]: 1.115
- Difference [2, 10]: 0.50
